Test results from ChEMBL document CHEMBL5543137, “Design and Synthesis of Novel Ultralong-Acting Peptides as EDP-EBP Interaction Inhibitors for Pulmonary Fibrosis Treatment” (J Med Chem, 2024).
Calls of active or inactive are those of the source. No cut-off for these calls is given here. Starred links: 1 amine or outer side, 2 acyl side, 3 side chain; linkers in the order of their positions; H or OH if unused. Non-standard residues stand in square brackets, D forms with d. Residues, ends and D or L forms follow the SMILES beside them. *: point of attachment. C20 diacid = O=C(O)CCCCCCCCCCCCCCCCCCC(=O)*; γGlu = O=C(O)[C@H](CCC(=O)[*:2])N[*:1]; Iva = CC[C@](C)(N)C(=O)O; PEG2 = NCCOCCOCCC(=O)O

Tests used:
Homo sapiens = species: Homo sapiens; assay: Inhibition of neuraminidase (unknown origin) at 0.005 to 500 uM; conditions: dose 0.005-500 µM
[1] = Binding affinity to EBP (unknown origin) by ITC method; design: species or system Homo sapiens
[2] = Half-life in Sprague-Dawley rat serum at 0.04 mg/kg, sc administered as single dose measured upto 10 days by LC-MS/MS method; type: ADME, organism-based; conditions: time < 10 day
[3] = Tmax in Sprague-Dawley rat serum at 0.12 mg/kg, sc administered as single dose measured upto 10 days by LC-MS/MS method; type: ADME, organism-based; conditions: time < 10 day
[4] = Half-life in Sprague-Dawley rat serum at 0.12 mg/kg, sc administered as single dose measured upto 10 days by LC-MS/MS method; type: ADME, organism-based; conditions: time < 10 day
[5] = Half life in cynomolgus monkey at 0.06 mg/kg, sc administered as single dose measured upto 30 days by LC-MS/MS method; type: ADME, organism-based, Macaca fascicularis; conditions: in vivo, time < 30 day
A549 [6] = assay: Downregulation of EDP level in TNFalpha induced human A549 cells at 1 to 10 uM; type: functional, cell-based; conditions: dose 1-10 µM
A549 [7] = assay: Antifibrotic activity against TNFalpha-induced human A549 cells assessed as downregulation of vimentin gene expression level at 10 uM incubated for 24 hrs by RT-qPCR analysis; type: functional, cell-based
A549 [8] = assay: Antifibrotic activity against TNFalpha-induced human A549 cells assessed as downregulation of Fn gene expression level at 10 uM incubated for 24 hrs by RT-qPCR analysis; type: functional, cell-based
A549 [9] = assay: Inhibition of EBP signaling pathway in TGFalpha induced human A549 cells assessed as reduction in ERK phosphorylation at 10 uM incubated for 24 hrs by Western blotting analysis; type: cell-based
TC-1 = assay: Inhibition of EBP signaling pathway in TGFalpha induced mouse TC-1 cells assessed as reduction in ERK phosphorylation at 10 uM incubated for 24 hrs by Western blotting analysis; type: cell-based
Mus musculus [10] = assay: Antifibrotic activity against BLM-induced C57BL/6 mouse pulmonary fibrosis model assessed as reduction in mortality at 150 ug/kg, sc administered for 2 weeks starting from 7 days post BLM induction and measured after 21 days post BLM induction; type: functional, organism-based; conditions: dose 150.0 µg/kg
Mus musculus [11] = assay: Antifibrotic activity against BLM-induced C57BL/6 mouse pulmonary fibrosis model assessed as reduction in fibrotic accumulation in lungs at 150 ug/kg, sc administered for 2 weeks starting from 7 days post BLM induction and measured after 21 days post BLM induction by immunohistochemical staining based assay; type: functional, organism-based; conditions: dose 150.0 µg/kg
Mus musculus [12] = assay: Antifibrotic activity against BLM-induced C57BL/6 mouse pulmonary fibrosis model assessed as downregulation of Timp1 gene expression in lung tissue at 150 ug/kg, sc administered for 2 weeks starting from 7 days post BLM induction and measured after 21 days post BLM induction by RT-qPCR assay; type: functional, organism-based; conditions: dose 150.0 µg/kg
Mus musculus [13] = assay: Antifibrotic activity against BLM-induced sc dosed C57BL/6 mouse pulmonary fibrosis model assessed as minimum effective dose administered for 2 weeks starting from 7 days post BLM induction and measured after 21 days post BLM induction; type: functional; conditions: C57BL/6, 336 h, dose 30-240 µg/kg, read-out: MED
Mus musculus [14] = assay: Antifibrotic activity against BLM-induced C57BL/6 mouse pulmonary fibrosis model assessed as reduction in ECM1 gene expression at 240 ug/kg/day, sc administered for 2 weeks starting from 7 days post BLM induction and measured after 21 days post BLM induction by ScRNA-sequencing analysis; type: functional, organism-based; conditions: dose 240.0 µg/kg/day
Mus musculus [15] = assay: Antifibrotic activity against BLM-induced C57BL/6 mouse pulmonary fibrosis model assessed as reduction in Mgp gene expression at 240 ug/kg/day, sc administered for 2 weeks starting from 7 days post BLM induction and measured after 21 days post BLM induction by ScRNA-sequencing analysis; type: functional, organism-based; conditions: dose 240.0 µg/kg/day
Mus musculus [16] = assay: Antifibrotic activity against BLM-induced C57BL/6 mouse pulmonary fibrosis model assessed as reduction in lung alpha-SMA expression at 240 ug/kg/day, sc administered for 2 weeks starting from 7 days post BLM induction and measured after 21 days post BLM induction by Western blotting analysis; type: functional, organism-based; conditions: dose 240.0 µg/kg/day
Mus musculus [17] = assay: Antifibrotic activity against BLM-induced C57BL/6 mouse pulmonary fibrosis model assessed as reversal of fibroblast activating effect at 240 ug/kg/day, sc administered for 2 weeks starting from 7 days post BLM induction and measured after 21 days post BLM induction; type: functional, organism-based; conditions: dose 240.0 µg/kg/day
Mus musculus [18] = assay: Antifibrotic activity against BLM-induced C57BL/6 mouse pulmonary fibrosis model assessed as reduction in spp1 gene expression at 240 ug/kg/day, sc administered for 2 weeks starting from 7 days post BLM induction and measured after 21 days post BLM induction by ScRNA-sequencing analysis; type: functional, organism-based; conditions: dose 240.0 µg/kg/day
Mus musculus [19] = assay: Antifibrotic activity against BLM-induced C57BL/6 mouse pulmonary fibrosis model assessed as reduction in Tnc gene expression at 240 ug/kg/day, sc administered for 2 weeks starting from 7 days post BLM induction and measured after 21 days post BLM induction by ScRNA-sequencing analysis; type: functional, organism-based; conditions: dose 240.0 µg/kg/day
Mus musculus [20] = assay: Antifibrotic activity against BLM-induced C57BL/6 mouse pulmonary fibrosis model assessed as reduction in Dcn gene expression at 240 ug/kg/day, sc administered for 2 weeks starting from 7 days post BLM induction and measured after 21 days post BLM induction by ScRNA-sequencing analysis; type: functional, organism-based; conditions: dose 240.0 µg/kg/day
Mus musculus [21] = assay: Antifibrotic activity against BLM-induced C57BL/6 mouse pulmonary fibrosis model assessed as reduction in Fstl1 gene expression at 240 ug/kg/day, sc administered for 2 weeks starting from 7 days post BLM induction and measured after 21 days post BLM induction by ScRNA-sequencing analysis; type: functional, organism-based; conditions: dose 240.0 µg/kg/day
Mus musculus [22] = assay: Antifibrotic activity against BLM-induced C57BL/6 mouse pulmonary fibrosis model assessed as increase in ECM degradation at 240 ug/kg/day, sc administered for 2 weeks starting from 7 days post BLM induction and measured after 21 days post BLM induction by gene enrichment analysis; type: functional, organism-based; conditions: dose 240.0 µg/kg/day
RAW264.7 [23] = assay: Antifibrotic activity against BLM-induced mouse RAW264.7 cells assessed as upregulation of MMP-12 mRNA expression at 10 uM incubated for 6 to 24 hrs by RT-qPCR analysis; type: functional, cell-based; conditions: time 6-24 hrs
RAW264.7 [24] = assay: Induction of cell migration in mouse RAW264.7 cells at 10 uM by DAPI staining based assay; type: functional
RAW264.7 [25] = assay: Effect on cell proliferation in mouse RAW264.7 cells at 10 uM after 24 hrs by flow cytometry analysis; type: functional, cell-based
Mus musculus [26] = assay: Antifibrotic activity against BLM-induced C57BL/6 mouse pulmonary fibrosis model assessed as increase in serum MMP-12 level at 30 to 240 ug/kg/day, sc administered for 2 weeks starting from 7 days post BLM induction and measured after 21 days post BLM induction; type: functional, organism-based; conditions: dose 30-240 µg/kg/day
Mus musculus [27] = assay: Antifibrotic activity against BLM-induced C57BL/6 mouse pulmonary fibrosis model assessed as increase in monocytes in BALF at 30 to 240 ug/kg/day, sc administered for 2 weeks starting from 7 days post BLM induction and measured after 21 days post BLM induction; type: functional, organism-based; conditions: dose 30-240 µg/kg/day
RAW264.7 [28] = assay: Antifibrotic activity against BLM-induced mouse RAW264.7 cells assessed as downregulation in TIMP-1 expression at 10 uM after 24 hrs by Western blotting analysis; type: functional, cell-based
Mus musculus [29] = assay: Antifibrotic activity against BLM-induced C57BL/6 mouse pulmonary fibrosis model assessed as reduction in alpha-SMA expression at 240 ug/kg/day, sc administered for 2 weeks starting from 7 days post BLM induction and measured after 21 days post BLM induction in presence of GM6001; type: functional, organism-based; conditions: dose 240.0 µg/kg/day

SMILES: CC[C@](C)(NC(=O)[C@@H](NC(=O)CCOCCOCCNC(=O)CCOCCOCCNC(=O)CC[C@H](NC(=O)CCCCCCCCCCCCCCCCCCC(=O)O)C(=O)O)C(C)C)C(=O)NCC(=O)N[C@@H](CO)C(=O)N1CCC[C@H]1C(=O)N[C@@H](CO)C(=O)N[C@@H](C)C(=O)N[C@@H](CCC(N)=O)C(=O)N[C@@H](CCC(=O)O)C(=O)N[C@@H](CCC(=O)O)C(=O)N[C@@H](C)C(=O)N[C@@H](CO)C(=O)N1CCC[C@H]1C(=O)N[C@@H](C)C(N)=O ({C20 diacid-γGlu-PEG2-PEG2}-V[Iva]GSPSAQEEASPA-NH2)
- inhibition (Homo sapiens): Active
- Kd [1]: 117 µM
- half-life [2]: 33.4 h
- Tmax [3]: 24 h
- half-life [4]: 33 h
- half-life [5]: 257 h
- Activity (A549 [6]): Dose-Dependent Effect
- Activity (A549 [7]): Active
- Activity (A549 [8]): Active
- inhibition (A549 [9]): Active
- inhibition (TC-1): Active
- Activity (Mus musculus [10]): Active
- Activity (Mus musculus [11]): Active
- Activity (Mus musculus [12]): Active
- minimal effective dose (Mus musculus [13]): 0.03 mg/kg
- Activity (Mus musculus [14]): Active
- Activity (Mus musculus [15]): Active
- Activity (Mus musculus [16]): Active
- Activity (Mus musculus [17]): Active
- Activity (Mus musculus [18]): Active
- Activity (Mus musculus [19]): Active
- Activity (Mus musculus [20]): Active
- Activity (Mus musculus [21]): Active
- Activity (Mus musculus [22]): Active
- Activity (RAW264.7 [23]): Active
- Activity (RAW264.7 [24]): Active
- Activity (RAW264.7 [25]): inactive
- Activity (Mus musculus [26]): Active
- Activity (Mus musculus [27]): Active
- Activity (RAW264.7 [28]): Active
- Activity (Mus musculus [29]): inactive
